Literature values, collected in patent publication US4530920A, “Nonapeptide and decapeptide analogs of LHRH, useful as LHRH agonist” (Syntex (U.S.A.) Inc., priority 1983, dated 1985).

System: LHRH activity
Settings: 6-position Gly replaced by a D-amino acid; literature

| Substance | activity relative to LH-RH |
| --- | --- |
| [D Ala^6 ]-LHRH | increased activity relative to LH-RH |
| [D-Leu^6 ]LHRH | increased activity relative to LH-RH |
| [D-Phe^6 ]LHRH | increased activity relative to LH-RH |
| [D-Trp^6 ]LHRH | increased activity relative to LH-RH |

Same assay, conditions: relative to LHRH; from Rivier et al. 1975 and Vale et al. 1979

| Substance | potency (times LHRH) |
| --- | --- |
| [D-Arg^6 ]LHRH | 3.9 |
| [D-Arg^6, Pro^9 -NHEt]LHRH | 16.7 |
| [D-LYS^6]LHRH | 3.8 |
| [D-Trp^6 ]LHRH | 36 |
| [D-Trp^6, Pro^9 -NHEt]LHRH | 144 |
